{"source": "patent US11345676B2", "about": "“Apoptosis signal-regulating kinase 1 (ASK 1) inhibitor compounds” (PHARMAKEA, INC., priority 2017, dated 2022)", "note": "pIC50: −log10 of the molar value. Counter-ions that a name gives are not always drawn.", "data": [{"target": "ASK1 (Homo sapiens (Human), UniProt Q99683)", "sequence (Q99683 649-946)": "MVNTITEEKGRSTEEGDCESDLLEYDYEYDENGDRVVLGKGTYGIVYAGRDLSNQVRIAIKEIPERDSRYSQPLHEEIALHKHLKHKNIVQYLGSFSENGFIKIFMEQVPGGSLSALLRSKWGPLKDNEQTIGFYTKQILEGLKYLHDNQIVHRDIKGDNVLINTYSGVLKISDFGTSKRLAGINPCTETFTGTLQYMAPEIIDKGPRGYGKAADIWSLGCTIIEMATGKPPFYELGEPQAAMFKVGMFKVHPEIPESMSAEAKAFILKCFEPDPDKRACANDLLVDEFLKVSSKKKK", "assay": "Human ASK1 ADP-Glo kinase assay", "type": "biochemical", "conditions": "recombinant ASK1 (amino acids 649-946), 50 μM ATP, MBP substrate", "protocol": "Example B-1: Human ASK1 ADP-Glo Assay\nThe ability of test compounds to inhibit ASK1 kinase activity was determined using the luminescent ADP-Glo™ Kinase Assay and Myelin Basic Protein (MBP) as a substrate (Promega Corporation, Madison, Wis.). During the kinase reaction, ASK1 utilizes ATP and generates ADP. The remaining ATP is then depleted by addition of the ADP-Glo™ reagent which also terminates the reaction. Subsequent addition of the Kinase Detection Reagent converts the ADP that was produced during the kinase reaction to ATP, and this newly synthesized ATP is converted to light using the luciferase/luciferin reactions. The assay was performed according to the manufacturer's instructions. Briefly, purified, recombinant ASK1 (amino acids 649-946) (10-20 ng/well) was added to a 384-well, F bottom, small volume, HIbase, white plate (Greiner Bio-One, Monroe, N.C. #784075) containing 1-2 μL 5× test compound or vehicle control (diluted 1:20 from a 100% DMSO stock solution into 1× Reaction Buffer A). The enzyme was allowed to pre-incubate with test compound from 15-120 min at 30° C. before the addition of the ATP/substrate mix (final concentrations of 50 μM ATP+250 ng MBP in 1× Reaction Buffer A). The mixture was then incubated at room temperature for 40 min before the addition of ADP-Glo™ reagent and a second 40 minute room temperature incubation. Following the addition of the Kinase Detection Reagent, the plate was incubated for an additional 40 min at room temperature before reading luminescence on a FlexStation 3 (Molecular Devices, Sunnyvale, Calif.). Maximum activity was determined from wells treated with vehicle and was set to 100% and minimum activity was determined from wells containing no enzyme and this was set to 0%. Percent inhibition was calculated relative to the controls and the data graphed in Collaborative Drug Discovery (CDD) Vault (Burlingame, Calif.).", "values": [{"smiles": "CC(C)n1cnnc1-c1cccc(NC(=O)c2cccc(Oc3cc(C#N)cc(C(F)(F)F)n3)c2)n1", "note": "[Compound 1-23, 3-((4-Cyano-6-(trifluoromethyl)pyridin-2-yl)oxy)-N-(6-(4-isopropyl-4H-1,2,4-triazol-3-yl)pyridin-2-yl)benzamide]", "pIC50": "> 6.52"}, {"smiles": "CC(C)n1cnnc1-c1cccc(NC(=O)c2cccc(Oc3cc(C(=O)O)cc(C(F)(F)F)n3)c2)n1", "note": "[Compound 1-24, 2-(3-((6-(4-Isopropyl-4H-1,2,4-triazol-3-yl)pyridin-2-yl)carbamoyl)phenoxy)-6-(trifluoromethyl)isonicotinic acid trifluoroacetate]", "pIC50": "6.00 to 6.52"}, {"smiles": "CC(C)n1cnnc1-c1cccc(NC(=O)c2cccc(OCc3ccccc3)c2)n1", "note": "[Compound 1-179, 3-(Benzyloxy)-N-(6-(4-isopropyl-4H-1,2,4-triazol-3-yl)pyridin-2-yl)benzamide]", "pIC50": "> 6.52"}, {"smiles": "CC(C)n1cnnc1-c1cccc(NC(=O)c2cccc(OCc3cccnc3)c2)n1", "note": "[Compound 1-181, N-(6-(4-Isopropyl-4H-1,2,4-triazol-3-yl)pyridin-2-yl)-3-(pyridin-3-ylmethoxy)benzamide hydrochloride]", "pIC50": "> 6.52"}, {"smiles": "CC(C)n1cnnc1-c1cccc(NC(=O)c2cc(Oc3ccccn3)ccc2F)n1", "note": "[Compound 1-210, 2-Fluoro-N-(6-(4-isopropyl-4H-1,2,4-triazol-3-yl)pyridin-2-yl)-5-(pyridin-2-yloxy)benzamide hydrochloride]", "pIC50": "> 6.52"}, {"smiles": "CC(C)n1cnnc1-c1cccc(NC(=O)c2cc(Oc3cccnc3)ccc2F)n1", "note": "[Compound 1-211, 2-Fluoro-N-(6-(4-isopropyl-4H-1,2,4-triazol-3-yl)pyridin-2-yl)-5-(pyridin-3-yloxy)benzamide hydrochloride]", "pIC50": "> 6.52"}, {"smiles": "CC(C)n1cnnc1-c1cccc(NC(=O)c2cc(Oc3cccc(C4CC4)n3)ccc2F)n1", "note": "[Compound 1-213, 5-((6-Cyclopropylpyridin-2-yl)oxy)-2-fluoro-N-(6-(4-isopropyl-4H-1,2,4-triazol-3-yl)pyridin-2-yl)benzamide trifluoroacetate]", "pIC50": "> 6.52"}, {"smiles": "CC(C)n1cnnc1-c1cccc(NC(=O)c2cc(Oc3ccncn3)ccc2F)n1", "note": "[Compound 1-217, 2-Fluoro-N-(6-(4-isopropyl-4H-1,2,4-triazol-3-yl)pyridin-2-yl)-5-(pyrimidin-4-yloxy)benzamide hydrochloride]", "pIC50": "> 6.52"}, {"smiles": "CC(C)n1cnnc1-c1cccc(NC(=O)c2cc(Oc3cccc(C(F)(F)F)n3)ccc2F)c1", "note": "[Compound 1-223, 2-Fluoro-N-(3-(4-isopropyl-4H-1,2,4-triazol-3-yl)phenyl)-5-((6-(trifluoromethyl)pyridin-2-yl)oxy)benzamide hydrochloride]", "pIC50": "> 6.52"}, {"smiles": "CC(C)n1cnnc1-c1cccc(NC(=O)c2cc(Oc3cccc(N4CCCC4)n3)ccc2F)n1", "note": "[Compound 1-225, 2-Fluoro-N-(6-(4-isopropyl-4H-1,2,4-triazol-3-yl)pyridin-2-yl)-5-((6-(pyrrolidin-1-yl)pyridin-2-yl)oxy)benzamide hydrochloride]", "pIC50": "6.00 to 6.52"}, {"smiles": "CC(C)n1cnnc1-c1cccc(NC(=O)c2cc(Oc3ccc(C4CC4)cn3)ccc2F)n1", "note": "[Compound 1-227, 5-((5-Cyclopropylpyridin-2-yl)oxy)-2-fluoro-N-(6-(4-isopropyl-4H-1,2,4-triazol-3-yl)pyridin-2-yl)benzamide hydrochloride]", "pIC50": "> 6.52"}, {"smiles": "CC(C)n1cnnc1-c1cccc(NC(=O)c2cc(NC(=O)c3ccccc3)ccc2F)n1", "note": "[Compound 1-305, 5-Benzamido-2-fluoro-N-(6-(4-isopropyl-4H-1,2,4-triazol-3-yl)pyridin-2-yl) benzamide hydrochloride]", "pIC50": "> 6.52"}, {"smiles": "CC(C)n1cnnc1-c1cccc(NC(=O)c2cc(NC(=O)c3ccccn3)ccc2F)n1", "note": "[Compound 1-307, N-(4-Fluoro-3-((6-(4-isopropyl-4H-1,2,4-triazol-3-yl)pyridin-2-yl)carbamoyl)phenyl)picolinamide hydrochloride]", "pIC50": "> 6.52"}, {"smiles": "CC(C)n1cnnc1-c1cccc(NC(=O)c2cc(NC(=O)c3cccnc3)ccc2F)n1", "note": "[Compound 1-308, N-(4-Fluoro-3-((6-(4-isopropyl-4H-1,2,4-triazol-3-yl)pyridin-2-yl)carbamoyl)phenyl)nicotinamide hydrochloride]", "pIC50": "> 6.52"}, {"smiles": "CC(C)n1cnnc1-c1cccc(NC(=O)c2cc(NC(=O)c3ccncc3)ccc2F)n1", "note": "[Compound 1-309, N-(4-Fluoro-3-((6-(4-isopropyl-4H-1,2,4-triazol-3-yl)pyridin-2-yl)carbamoyl)phenyl)isonicotinamide dihydrochloride]", "pIC50": "> 6.52"}, {"smiles": "CC(C)n1cnnc1-c1cccc(NC(=O)c2cc(NC(=O)c3ccc(Br)cn3)ccc2F)n1", "note": "[Compound 1-311, 5-Bromo-N-(4-fluoro-3-((6-(4-isopropyl-4H-1,2,4-triazol-3-yl)pyridin-2-yl)carbamoyl)phenyl)picolinamide hydrochloride]", "pIC50": "> 6.52"}, {"smiles": "CC(C)n1cnnc1-c1cccc(NC(=O)c2cc(NC(=O)c3cncnc3)ccc2F)n1", "note": "[Compound 1-313, N-(4-Fluoro-3-((6-(4-isopropyl-4H-1,2,4-triazol-3-yl)pyridin-2-yl)carbamoyl)phenyl)pyrimidine-5-carboxamide hydrochloride]", "pIC50": "> 6.52"}, {"smiles": "CC(C)n1cnnc1-c1cccc(NC(=O)c2cc(NC(=O)c3ncccn3)ccc2F)n1", "note": "[Compound 1-314, N-(4-Fluoro-3-((6-(4-isopropyl-4H-1,2,4-triazol-3-yl)pyridin-2-yl)carbamoyl)phenyl)pyrimidine-2-carboxamide trifluoroacetate]", "pIC50": "> 6.52"}, {"smiles": "CC(C)(C)OC(=O)NCc1cc(Oc2ccnc(C(=O)Nc3cccc(-c4nncn4C4CC4)n3)c2)nc(C(F)(F)F)c1", "note": "[Compound 1-329, tert-Butyl ((2-((2-((6-(4-cyclopropyl-4H-1,2,4-triazol-3-yl)pyridin-2-yl)carbamoyl)pyridin-4-yl)oxy)-6-(trifluoromethyl)pyridin-4-yl)methyl)carbamate]", "pIC50": "6.00 to 6.52"}, {"smiles": "CC(C)n1cnnc1-c1cccc(NC(=O)c2cc(NC(=O)c3cc(CN)ccn3)ccc2F)n1", "note": "[Compound 1-332, 4-(Aminomethyl)-N-(4-fluoro-3-((6-(4-isopropyl-4H-1,2,4-triazol-3-yl)pyridin-2-yl)carbamoyl)phenyl)picolinamide hydrochloride]", "pIC50": "> 6.52"}, {"smiles": "CC(C)n1cnnc1-c1cccc(NC(=O)c2cc(NC(=O)Cc3ccccc3)ccc2F)n1", "note": "[Compound 1-333, 2-Fluoro-N-(6-(4-isopropyl-4H-1,2,4-triazol-3-yl)pyridin-2-yl)-5-(2-phenylacetamido)benzamide trifluoroacetate]", "pIC50": "> 6.52"}, {"smiles": "CC(C)n1cnnc1-c1cccc(NC(=O)c2cc(NC(=O)c3ccc(F)c(F)c3)ccc2F)n1", "note": "[Compound 1-334, 5-(3,4-Difluorobenzamido)-2-fluoro-N-(6-(4-isopropyl-4H-1,2,4-triazol-3-yl)pyridin-2-yl)benzamide hydrochloride]", "pIC50": "> 6.52"}, {"smiles": "CC(C)n1cnnc1-c1cccc(NC(=O)c2cc(NC(=O)c3ccc(C(=O)O)cc3)ccc2F)n1", "note": "[Compound 1-335, 4-((4-Fluoro-3-((6-(4-isopropyl-4H-1,2,4-triazol-3-yl)pyridin-2-yl)carbamoyl)phenyl)carbamoyl)benzoic acid sodium salt]", "pIC50": "> 6.52"}, {"smiles": "CC(C)n1cnnc1-c1cccc(NC(=O)c2cc(Oc3cccc(Br)n3)ccc2F)n1", "note": "[Compound 1-336, 5-((6-Bromopyridin-2-yl)oxy)-2-fluoro-N-(6-(4-isopropyl-4H-1,2,4-triazol-3-yl)pyridin-2-yl)benzamide hydrochloride]", "pIC50": "> 6.52"}]}]}
